Key:
Format in all cases: biochemical
[1] = molecular target: lipid peroxidation due to the autoxidation of linoleic acid; test: Linoleic acid-MCLA system, Test Case 4; conditions: linoleic acid 10 mM, MCLA 2 μM, 1-butanol, 37° C.; read-out: 50% inhibition concentration
Procedure: The test compounds were evaluated for their inhibitory effect against lipid peroxidation due to the autoxidation of linoleic acid.
A reaction solution was prepared by mixing linoleic acid and MCLA (2-methyl-6-(p-methoxyphenyl)-3,7-dihydroimidazo[1,2-a]pyrazin-3-one) in 1-butanol and stored in ice until use. An amount of this reaction solution was sampled in a chemiluminescence measuring cell and, immediately thereafter, the intensity of chemiluminescence due to the autoxidation of linoleic acid was measured at 37° C. in a thermostatic bath. A normal chemiluminescence intensity measurement was conducted about 2-4 min later when the chemiluminescence substantially peaked.

[2] = system: xanthine oxidase (XOD)-hypoxanthine (HX) system (superoxide); test: Xanthine oxidase system (superoxide generating system); conditions: pH 7.4, 37° C.
Procedure: The test compounds were evaluated under the following conditions for their effect in a reaction due to a xanthine oxidase (XOD)-hypoxanthine (HX) system in aqueous solution.
Xanthine oxidase 0.1 U/ml
Hepes buffer solution (pH 7.4)
(§1) A reaction solution was prepared by mixing hypoxanthine and luminol in the Hepes buffer solution and stored in ice until use. After warming the reaction solution at 37° C. for about 10 min, the reaction was started by addition of the xanthine oxidase solution. A measurement was started right after the addition of xanthine oxidase and subsequent stirring; chemiluminescence intensity was normally measured right after the start of the reaction. In the experimental model, luminol-dependent chemiluminescence induced by superoxide generated by enzymatic reaction of xanthine oxidase was detected, thus enabling the measurement of the reactivity with superoxide.

[3] = system: lactoperoxidase reaction system (singlet oxygen); test: Lactoperoxidase system (singlet oxygen system); conditions: pH 4.5, 37° C.
Procedure: The test compounds were evaluated under the following conditions for their effect against a lactoperoxidase reaction system.
Lactoperoxidase 10 μg/ml
Acetate buffer solution (pH 4.5)
as §1, with “hydrogen peroxide, sodium bromide” for “hypoxanthine”, “acetate” for “Hepes”, “lactoperoxidase” for “xanthine oxidase”, “was” for “was normally”, “singlet oxygen” for “superoxide”, “singlet oxygen.” for “superoxide.”

Rabbit LDL = test: Amount of TBARS (Cu^2+-induced oxidation of rabbit LDL); conditions: 5 μM Cu^2+
Procedure: Rabbit LDL was prepared in accordance with the method of Havel et al. [Havel, R. J. et al., J. Clin. Invest., 34, (1955)]. After adding 5 μM of Cu^2+, the mixture was warmed until a thiobarbituric acid reactive substance (TBARS) was produced. The test compounds were evaluated for their anti-oxidative action with the amount of TBARS being used as an index. [formula]

Chemiluminescence intensity (% of control) ([2]; at 20 μM of compound)	Chemiluminescence intensity (% of control) ([2]; at 200 μM of compound)	Chemiluminescence intensity (% of control) ([3]; at 20 μM of compound)	Chemiluminescence intensity (% of control) ([3]; at 200 μM of compound)	Structure (SMILES)	IC50 [1]	TBARS produced (%) (Rabbit LDL; at 10^-5 M of compound, 10 µM)	TBARS produced (%) (Rabbit LDL; at 10^-6 M of compound, 1 µM)
32.7 % of control	3.2 % of control	82.1 % of control	15.1 % of control	CC1Cc2c(ccc(O)c2C(C)(C)C)O1 (stereo not drawn) [Comparison 2, reference compound]	54 µM		
21.9 % of control	8.2 % of control	95.3 % of control	4.5 % of control	CC(C)(C)c1cc(O)c(C(C)(C)C)c2c1OCC2 [Comparison 5, reference compound]	41 µM		
31.9 % of control	24.0 % of control	105.8 % of control	8.1 % of control	CC1Cc2c(c(C(C)(C)C)cc(O)c2C(C)(C)C)O1 (stereo not drawn) [Comparison 6, reference compound]	19 µM		
41.8 % of control	26.1 % of control	94.5 % of control	56.6 % of control	CC(C)(C)c1cc2c(c(C(C)(C)C)c1O)CCO2 [Compound a, 4,6-Di-tert-Butyl-5-Hydroxy-2,3-Dihydrobenzofuran]	7 µM	10.3%	52.2%
55.8 % of control	17.5 % of control	86.2 % of control	0.8 % of control	CCC(C)c1cc2c(c(C(C)(C)C)c1O)CCO2 (stereo not drawn) [Comparison 7, reference compound]	7 µM		

— US5574178A, “4,6-Di-t-butyl-dihydrobenzofuran-5-ol and its derivatives” (Chugai Seiyaku Kabushiki Kaisha, priority 1992, dated 1996)
